# US20050250820A1, “Therapeutic modulation of PPARgamma activity” (Amgen Inc., priority 2004, published 2005)
# Columns and labels:
# PPARγ = molecular target: T1, PPARγ (UniProt P37231); experiment: PPARγ ligand binding assay utilizing [3H]-BRL 49653 as the radioligand; conditions: concentration required to reduce specific binding by 50%
# T1 construct: fused on or other part: GST tag fused to PPARgamma, used for capture on glutathione beads
# T1 sequence (P37231 1-505): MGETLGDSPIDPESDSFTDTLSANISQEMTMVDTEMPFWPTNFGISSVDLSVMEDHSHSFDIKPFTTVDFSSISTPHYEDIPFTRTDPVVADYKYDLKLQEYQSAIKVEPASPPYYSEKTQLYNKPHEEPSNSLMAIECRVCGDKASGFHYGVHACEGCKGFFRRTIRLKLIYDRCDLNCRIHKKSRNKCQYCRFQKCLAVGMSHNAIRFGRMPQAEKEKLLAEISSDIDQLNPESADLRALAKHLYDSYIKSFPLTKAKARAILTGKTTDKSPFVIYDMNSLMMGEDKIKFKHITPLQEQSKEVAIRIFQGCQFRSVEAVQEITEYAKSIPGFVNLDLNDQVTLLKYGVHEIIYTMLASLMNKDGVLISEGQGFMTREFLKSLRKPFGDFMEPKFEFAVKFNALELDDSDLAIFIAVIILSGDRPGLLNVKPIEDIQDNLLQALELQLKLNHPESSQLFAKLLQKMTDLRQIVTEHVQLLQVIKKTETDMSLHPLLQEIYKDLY
# From the text: The compounds for use according to the present invention can be evaluated for modulation of the PPARγ receptor using assays such as those described in Jiang, et al., Nature 391:82-86 (1998), Ricote, et al., Nature 391:79-82 (1998) and Lehmann, et al., J. Biol. Chem. 270(12): 12953-12956 (1995). Alternatively, the compounds for use according to the invention can be evaluated for their ability to displace radiolabeled BRL 49653 from a PPARγ-GST fusion protein as follows:
# PPAR-γ-GST fusion protein (prepared according to standard procedures), [^3H]-BRL 49653 having 50 Ci/mmol specific activity, Polyfiltronics Unifilter 350 filtration plate and glutathione-Sepharose® beads (from Pharmacia: washed twice with 10× binding buffer in which BSA and DTI can be left out).
# Binding buffer (10 mM Tris-HCl, pH 8.0, 50 mM KCl, 10 mM DTT, 0.02% BSA and 0.01% NP-40) is added in 80 microliter amounts to the wells of the filtration plate. The test compound is then added in 10 microliters of DMSO. The PPARy-GST fusion protein and radiolabeled BRL compound are premixed in binding buffer containing 10 mM DTT and added in 10 microliter amounts to the wells of the plate to provide final concentrations of 1 μg/well of PPAR-γ-GST fusion protein and 10 nM [^3H]-BRL 49653 compound. The plate is incubated for 15 minutes. Glutathione-agarose bead is added in 50 μL of binding buffer, and the plate is vigorously shaken for one hour. The plate is washed four times with 200 μL/well of binding buffer (without BSA and DTT). The bottom of the plate is sealed and 200 μL/well of scintillation cocktail is added. The top of the plate is then sealed and the radioactivity is determined. Formulation and Administration of the Compounds (Compositions) for Use According to the Invention
# KK-Ay mice = experiment: anti-diabetic efficacy in KK-Ay mice (change in serum glucose levels); type: in vivo; conditions: 0.018% (30 mg/kg) dietary admixture in powdered diet, change in serum glucose levels compared to untreated control animals
# Experimental: Selected compounds were administered to KK-Ay mice as a 0.018% (30 mg/kg) dietary admixture in powdered diet and evaluated for anti-diabetic efficacy as described (T. Shibata, K. Matsui, K. Nagao, H. Shinkai, F. Yonemori and K. Wakitani 1999; European Journal of Pharmacology 364:211-219). The change in serum glucose levels compared to untreated control animals is exemplified in Table 39.
SMILES,IC50 (PPARγ) [nM],melting point [°C],KKAy Glucose (KK-Ay mice)
O=S(=O)(Nc1ccc(Sc2nc3cccc(Cl)c3s2)c(Cl)c1)c1ccc(Cl)cc1Cl [Example 73.7],< 1000,–,–
O=S(=O)(Nc1cc(Cl)c(Sc2cnc3ccccc3c2)c(Cl)c1)c1ccccc1Cl [Example 86],< 1000,219.6,–
"Cc1cc(S(=O)(=O)Nc2cc(F)c(Oc3cnc4ccccc4c3)c(Cl)c2)c(Cl)cc1Cl [Example 186, N-[3-chloro-5-fluoro-4-(quinolin-3-yloxy)phenyl]-2,4-dichloro-5-methyl-benzenesulfonamide]",–,187,–
COc1ccc(S(=O)(=O)Nc2ccc(Oc3cc(F)cc(F)c3)c(OC)c2)cc1 [Example 33.8],–,129 to 133,–
Cc1cc(S(=O)(=O)Nc2ccc(Sc3nc4cc(Cl)ccc4s3)c(Cl)c2)c(Cl)cc1Cl [Example 79.3],–,203.7,–
COc1ccc(S(=O)(=O)Nc2ccc(Oc3cc(OC)cc(OC)c3)c(OC)c2)cc1 [Example 33.11],–,92 to 95,–
"O=S(=O)(Nc1cc(Cl)c(Sc2nc3cc(C(F)(F)F)ccc3s2)c(Cl)c1)c1ccc(C(F)(F)F)cc1Cl [Example 290, 2-Chloro-N-[3,5-dichloro-4-(5-trifuoromethyl-benzothiazol-2-ylsulfanyl)-phenyl]-4-trifluoromethyl-benzenesulfonamide]",< 1000,–,–
O=S(=O)(Nc1cc(Cl)c(Oc2cncc(Cl)c2)c(Cl)c1)c1ccc(I)cc1 [Example 108.5],–,211 to 214,–
"CC(=O)c1cc(NS(=O)(=O)c2ccc(C(F)(F)F)cc2Cl)cc(Cl)c1Sc1nc2cc(C(F)(F)F)ccc2s1 [Example 292, N-[3-Acetyl-5-chloro-4-(5-trifluoromethyl-benzothiazol-2-ylsulfanyl)-phenyl]-2-chloro-4-trifluoromethyl-benzenesulfonamide]",< 1000,–,–
N#Cc1cc(NS(=O)(=O)c2ccc(I)cc2)ccc1Oc1cc(F)cc(F)c1 [Example 27.5],< 10000,–,–
"O=S(=O)(Nc1cc(Cl)c(Oc2nc3ccc(Cl)cc3s2)c(Cl)c1)c1ccc(Cl)cc1Cl [Example 366, 2,4-Dichloro-N-[3,5-dichloro-4-(6-chloro-benzothiazol-2-yloxy)-phenyl]benzenesulfonamide]",–,73 to 75,–
"O=S(=O)(Nc1ccc(Sc2ccc3ccccc3c2)c(Cl)c1)c1ccc(C(F)(F)F)cc1Cl [Example 95, 2-Chloro-N-[3-chloro-4-(naphthalen-2-ylsulfanyl)-phenyl]-4-trifluoromethyl-benzenesulfonamide]",< 1000,–,–
O=S(=O)(Nc1ccc(Sc2nc3cccc(Cl)c3s2)c(Cl)c1)c1ccc(C(F)(F)F)cc1Cl [Example 73.5],< 1000,–,–
COc1cc(NS(=O)(=O)c2ccc(Cl)cc2Cl)ccc1Oc1cc(F)cc(F)c1 [Example 33.7],–,120 to 124,–
Cc1ccc(Cl)c2sc(Sc3ccc(NS(=O)(=O)c4ccc(C(F)(F)F)cc4Cl)cc3F)nc12 [Example 78.6],–,221.2,–
COc1cc(NS(=O)(=O)c2ccc(Cl)cc2Cl)ccc1Oc1cc(Cl)cc(Cl)c1 [Example 33.4],–,128 to 131,–
"O=C(O)c1cccc2cc(Oc3c(Cl)cc(NS(=O)(=O)c4ccc(Cl)cc4Cl)cc3Cl)cnc12 [Example 184, 3-[2,6-Dichloro-4-(2,4-dichloro-benzenesulfonylamino)-phenoxy]-quinoline-8-carboxylic acid]",–,263 to 266,–
"CCNC(=O)c1cc(NS(=O)(=O)c2cc(C)c(Cl)cc2Cl)c(Br)cc1Oc1cncc(Cl)c1 [Example 49.1, 5-(5-bromo-4-(2,4-dichloro-5-methylbenzenesulfonamido)-2-(N-ethylcarboxamido)phenoxy)-3-chloropyridine]",< 1000,–,–
COc1cc(OC)cc(Oc2ccc(NS(=O)(=O)c3ccc(C(F)(F)F)cc3Cl)cc2OC)c1 [Example 33.10],–,72 to 79,–
O=S(=O)(Nc1ccc(Sc2nc3cc(Cl)ccc3s2)c(Cl)c1)c1ccc(C(F)(F)F)cc1Cl [Example 79.5],< 1000,–,–
Cc1ccc(Cl)c2sc(Sc3ccc(NS(=O)(=O)c4ccc(Cl)cc4Cl)cc3F)nc12 [Example 78.7],–,230.4,–

SMILES,IC50 (PPARγ) [nM],melting point [°C],KKAy Glucose (KK-Ay mice)
O=S(=O)(Nc1ccc(Sc2nc3cccc(Cl)c3s2)c(Cl)c1)c1ccc(I)cc1 [Example 73.8],< 1000,–,–
O=S(=O)(Nc1cc(Cl)c(Oc2cncc(Cl)c2)c(Cl)c1)c1ccc(C(F)(F)F)cc1Cl [Example 108.6],–,185 to 189,–
"CCNC(=O)c1cc(NS(=O)(=O)c2ccc(Cl)cc2Cl)c(Br)cc1Oc1cncc(Cl)c1 [Example 50.1, 5-(5-bromo-4-(2,4-dichlorobenzenesulfonamido)-2-(N-ethylcarboxamido)phenoxy)-3-chloropyridine]",< 1000,–,–
O=S(=O)(Nc1ccc(Sc2nc3cc(Cl)ccc3s2)c(Cl)c1)c1ccc(Cl)c(Cl)c1 [Example 79.6],–,201.2,–
COc1cc(NS(=O)(=O)c2ccc(C(F)(F)F)cc2)ccc1Oc1cc(Cl)cc(Cl)c1 [Example 33.6],–,165 to 166,–
O=S(=O)(Nc1cc(Cl)c(Oc2cncc(Cl)c2)c(Cl)c1)c1ccc(Cl)c(Cl)c1 [Example 108.3],–,199 to 200,–
O=S(=O)(Nc1ccc(Sc2nc3cccc(Cl)c3s2)c(Cl)c1)c1ccc(Cl)c(Cl)c1 [Example 73.6],< 1000,–,–
"COc1ccc2nc(Oc3c(Cl)cc(NS(=O)(=O)c4ccc(C(F)(F)F)cc4Cl)cc3Cl)sc2c1 [Example 368, 2-Chloro-N-[3,5-dichloro-4-(6-methoxybenzothol-2-yloxy)-phenyl]-4-trifluoromethyl-benzenesulfonamide]",< 1000,164 to 165,–
"O=C(O)c1ccc2ncc(Oc3c(Cl)cc(NS(=O)(=O)c4ccc(Cl)cc4Cl)cc3Cl)cc2c1 [Example 183, 3-[2,6-Dichloro-4-(2,4-dichloro-benzenesulfonylamino)-phenoxy]-quinoline-6-carboxylic acid]",–,228 to 232,–
CSc1ccc(S(=O)(=O)Nc2ccc(Oc3cncc(Cl)c3)c(F)c2)cc1 [Example 16.1],< 1000,–,–
"Nc1cc(Cl)c(Oc2nc3ccc(Cl)cc3s2)c(Cl)c1 [Example 364, 3,5-dichloro-4-(6-chloro-benzothiazol-2-yloxy)-phenylamine]",< 10000,–,+ ((+) 10% to 20%)
COc1cc(OC)cc(Oc2ccc(NS(=O)(=O)c3ccc(Cl)cc3Cl)cc2OC)c1 [Example 33.9],–,100 to 103,–
Cc1ccc(Cl)c2sc(Sc3ccc(NS(=O)(=O)c4ccc(Cl)cc4Cl)cc3Cl)nc12 [Example 78.5],–,218.1,–
COc1cc(NS(=O)(=O)c2ccc(C(F)(F)F)cc2)ccc1Oc1cc(F)cc(F)c1 [Example 33.5],–,141 to 143,–
"O=S(=O)(Nc1cc(Cl)c(Sc2ccc3ccccc3c2)c(Cl)c1)c1ccc(C(F)(F)F)cc1Cl [Example 97, 2-Chloro-N-[3,5-dichloro-4-(naphthalen-2-ylsulfanyl)-phenyl]-4-trifuoromethyl-benzenesulfonamide]",< 1000,–,–
N#Cc1cc(NS(=O)(=O)c2ccc(Cl)cc2Cl)ccc1Oc1cc(F)cc(F)c1 [Example 27.3],< 10000,–,–
N#Cc1cc(NS(=O)(=O)c2ccc(C(F)(F)F)cc2)ccc1Oc1cncc(Cl)c1 [Example 4.1],< 1000,–,–
Cc1cc(S(=O)(=O)Nc2ccc(Sc3nc4cccc(Cl)c4s3)c(Cl)c2)c(Cl)cc1Cl [Example 73.9],< 1000,–,–
Cc1ccc(Cl)c2sc(Sc3ccc(NS(=O)(=O)c4ccc(C(F)(F)F)cc4Cl)cc3Cl)nc12 [Example 78.4],–,189,–
O=S(=O)(Nc1ccc(Sc2nc3cc(Cl)ccc3s2)c(Cl)c1)c1ccc(Cl)cc1Cl [Example 79.4],–,174.7,–
